Source: ChEMBL document CHEMBL1201862, “PubChem BioAssay data set” (2004)
Activity calls are given as the source filed them.

Columns and labels:
[1] = molecular target: T1, Short transient receptor potential channel 4 (Mus musculus, UniProt Q9QUQ5); assay: TRPC4 positive allosteric modulators, dose response, cell-based, HEK293 TRPC4/mu-opioid, Fluo-4 calcium, EC20 DAMGO (AID 434941); assay type: functional
T1 sequence (Q9QUQ5 whole entry): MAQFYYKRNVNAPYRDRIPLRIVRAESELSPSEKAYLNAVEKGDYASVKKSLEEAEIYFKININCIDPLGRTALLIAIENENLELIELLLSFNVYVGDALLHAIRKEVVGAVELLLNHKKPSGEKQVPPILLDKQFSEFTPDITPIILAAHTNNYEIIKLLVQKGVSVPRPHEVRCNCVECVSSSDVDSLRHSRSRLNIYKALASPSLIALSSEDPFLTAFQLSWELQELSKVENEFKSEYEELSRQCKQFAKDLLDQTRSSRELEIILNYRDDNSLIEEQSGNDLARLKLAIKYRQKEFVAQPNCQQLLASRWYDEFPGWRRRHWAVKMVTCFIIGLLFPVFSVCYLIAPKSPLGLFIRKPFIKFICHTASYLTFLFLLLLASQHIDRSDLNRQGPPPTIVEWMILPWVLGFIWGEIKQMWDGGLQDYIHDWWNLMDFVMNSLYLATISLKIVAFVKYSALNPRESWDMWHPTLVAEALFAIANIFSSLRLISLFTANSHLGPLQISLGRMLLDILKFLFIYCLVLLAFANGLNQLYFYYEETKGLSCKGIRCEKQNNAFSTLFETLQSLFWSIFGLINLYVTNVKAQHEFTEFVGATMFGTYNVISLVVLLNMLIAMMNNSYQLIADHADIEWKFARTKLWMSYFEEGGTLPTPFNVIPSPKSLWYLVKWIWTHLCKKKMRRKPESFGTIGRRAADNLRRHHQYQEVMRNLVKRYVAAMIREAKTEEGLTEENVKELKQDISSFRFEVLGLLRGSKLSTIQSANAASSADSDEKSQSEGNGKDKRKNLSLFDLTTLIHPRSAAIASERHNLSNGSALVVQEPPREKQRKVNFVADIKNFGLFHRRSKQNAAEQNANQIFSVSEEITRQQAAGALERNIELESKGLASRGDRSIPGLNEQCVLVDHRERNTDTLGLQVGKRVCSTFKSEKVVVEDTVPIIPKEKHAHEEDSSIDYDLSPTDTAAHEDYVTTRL

[2] = molecular target: T2, E3 ubiquitin-protein ligase XIAP (Homo sapiens, UniProt P98170); assay: Counter Screen using XIAP-Bir3 for Chemical Antagonists of Bir1/2 domains of IAP-family anti-apoptotic proteins. [Related pubchem assays (depositor defined):AID1018, AID1449, AID1514, AID1638, AID1749, AID1750, AID488957, AID488963]
T2 sequence (P98170 whole entry): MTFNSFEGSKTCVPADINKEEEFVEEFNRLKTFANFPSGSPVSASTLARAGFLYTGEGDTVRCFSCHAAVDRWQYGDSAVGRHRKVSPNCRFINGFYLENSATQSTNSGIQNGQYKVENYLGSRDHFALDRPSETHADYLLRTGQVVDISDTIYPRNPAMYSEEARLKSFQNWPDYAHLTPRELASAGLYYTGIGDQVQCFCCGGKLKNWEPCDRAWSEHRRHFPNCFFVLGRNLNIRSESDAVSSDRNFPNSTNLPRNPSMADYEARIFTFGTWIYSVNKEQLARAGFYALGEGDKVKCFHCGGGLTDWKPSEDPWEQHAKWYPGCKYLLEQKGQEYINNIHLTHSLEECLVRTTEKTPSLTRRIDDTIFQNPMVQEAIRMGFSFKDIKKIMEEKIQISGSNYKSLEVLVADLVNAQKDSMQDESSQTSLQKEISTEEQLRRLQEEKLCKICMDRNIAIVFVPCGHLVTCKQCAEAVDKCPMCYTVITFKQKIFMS

[3] = molecular target: T2, E3 ubiquitin-protein ligase XIAP; assay: XIAP antagonists, biochemical, IAP family, fluorescence polarization (AID 1018); assay type: functional
[4] = C. albicans growth with fluconazole, confirmation, fluorescence, retest (AID 2467); assay type: functional, cell-based
[5] = system: Vero; assay: cells; assay type: functional; details: Chlorocebus sabaeus
[6] = system: INS1; assay: beta cell apoptosis inhibitors, cytokine rescue, dose response, luminescence, retest (AID 449756); assay type: functional, cell-based; details: Rattus norvegicus;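 also: cell death triggered by IL-1 beta plus TNF-alpha plus IFN-gamma mixture; protective hits raise ATP signal compared with cytokine alone wells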
[7] = molecular target: Protein Wnt-3a (Mus musculus, UniProt P27467); assay: Wnt3a-driven reporter signaling inhibition, dose response, selectivity assay for Gli-SUFU antagonist project, Wnt-LIGHT cells, luminescence (AID 651570); assay type: functional; details: read-out: IC50_Mean;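 also: Wnt-LIGHT reporter cells stimulated with conditioned medium from Wnt3a-producing cells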
Sequence of Protein Wnt-3a (P27467 whole entry): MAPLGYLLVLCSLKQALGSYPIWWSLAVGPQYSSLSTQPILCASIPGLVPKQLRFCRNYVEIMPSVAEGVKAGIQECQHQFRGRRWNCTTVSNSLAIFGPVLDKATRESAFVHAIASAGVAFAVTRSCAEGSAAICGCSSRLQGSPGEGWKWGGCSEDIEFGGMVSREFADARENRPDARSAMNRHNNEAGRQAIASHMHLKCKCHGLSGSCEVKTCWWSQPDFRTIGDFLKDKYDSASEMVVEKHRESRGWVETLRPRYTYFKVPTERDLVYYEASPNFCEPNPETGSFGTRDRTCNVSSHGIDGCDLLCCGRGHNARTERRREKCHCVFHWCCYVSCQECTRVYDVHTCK

[8] = NIH-3T3 fibroblast cytotoxicity, dose response, cytotoxicity control, cell-based, fluorescence, Alamar Blue, secondary assay (AID 2327); assay type: functional;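 also: NIH-3T3 mouse fibroblasts cultured with fluconazole at 8 µg/mL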
[9] = molecular target: T3, Microphthalmia-associated transcription factor (Homo sapiens, UniProt O75030); assay: TRPM1 promoter luciferase signal decrease, dose response, MITF inhibitor project, cell-based, SK-MEL-5, cherry-picked, set 3 (AID 493073); assay type: functional
T3 sequence (O75030 whole entry): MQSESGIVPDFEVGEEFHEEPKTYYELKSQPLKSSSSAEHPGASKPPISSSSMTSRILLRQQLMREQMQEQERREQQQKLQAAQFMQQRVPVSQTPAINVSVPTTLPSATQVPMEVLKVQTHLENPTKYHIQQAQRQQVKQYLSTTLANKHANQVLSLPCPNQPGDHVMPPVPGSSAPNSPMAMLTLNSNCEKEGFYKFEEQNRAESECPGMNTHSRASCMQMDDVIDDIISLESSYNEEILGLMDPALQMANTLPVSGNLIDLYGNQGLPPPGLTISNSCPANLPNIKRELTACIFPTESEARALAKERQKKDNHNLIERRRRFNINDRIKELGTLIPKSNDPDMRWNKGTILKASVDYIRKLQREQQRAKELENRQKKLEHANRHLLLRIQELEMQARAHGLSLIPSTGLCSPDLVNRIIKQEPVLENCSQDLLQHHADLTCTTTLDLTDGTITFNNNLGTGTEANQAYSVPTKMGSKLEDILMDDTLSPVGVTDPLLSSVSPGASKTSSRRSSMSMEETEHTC

[10] = molecular target: Cytochrome P450 2C19 (Homo sapiens, UniProt P33261); assay: Cytochrome panel assay with activity outcomes. Panel member name: p450-cyp2c19 Compounds with AC50 equal or less than 10 uM are considered active; assay type: functional; details: read-out: AC50
Sequence of Cytochrome P450 2C19 (P33261 whole entry): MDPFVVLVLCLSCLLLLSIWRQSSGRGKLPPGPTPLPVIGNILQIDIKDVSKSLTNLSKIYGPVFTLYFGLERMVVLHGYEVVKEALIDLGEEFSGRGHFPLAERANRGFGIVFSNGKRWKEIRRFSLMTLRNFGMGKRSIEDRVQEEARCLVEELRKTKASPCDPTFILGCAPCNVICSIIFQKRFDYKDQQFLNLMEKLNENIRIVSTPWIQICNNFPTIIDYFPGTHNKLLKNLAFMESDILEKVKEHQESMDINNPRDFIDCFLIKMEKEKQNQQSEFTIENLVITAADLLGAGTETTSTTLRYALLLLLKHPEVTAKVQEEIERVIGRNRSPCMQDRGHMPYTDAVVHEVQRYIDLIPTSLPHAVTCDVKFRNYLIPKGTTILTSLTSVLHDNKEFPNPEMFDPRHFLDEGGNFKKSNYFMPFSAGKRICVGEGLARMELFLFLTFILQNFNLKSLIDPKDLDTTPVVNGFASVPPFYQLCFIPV

[11] = molecular target: SUMO-activating enzyme (Homo sapiens, UniProt Q9UBT2); assay: SUMOylation inhibitor hit validation, confirmation, SUMOylation inhibitor project, biochemical, AlphaScreen (AID 2018); assay type: functional
Sequence of SUMO-activating enzyme (Q9UBE0 whole entry): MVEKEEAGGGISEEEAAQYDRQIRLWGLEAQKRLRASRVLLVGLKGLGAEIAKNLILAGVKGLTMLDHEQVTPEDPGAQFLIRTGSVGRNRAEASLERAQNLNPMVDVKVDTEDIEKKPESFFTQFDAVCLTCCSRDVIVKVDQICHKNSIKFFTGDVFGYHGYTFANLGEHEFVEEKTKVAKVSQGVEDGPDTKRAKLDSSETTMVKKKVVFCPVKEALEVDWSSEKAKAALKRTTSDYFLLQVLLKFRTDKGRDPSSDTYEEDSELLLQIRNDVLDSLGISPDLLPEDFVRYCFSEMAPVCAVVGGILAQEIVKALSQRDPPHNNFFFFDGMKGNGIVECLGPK
Sequence of SUMO-activating enzyme (Q9UBT2 whole entry): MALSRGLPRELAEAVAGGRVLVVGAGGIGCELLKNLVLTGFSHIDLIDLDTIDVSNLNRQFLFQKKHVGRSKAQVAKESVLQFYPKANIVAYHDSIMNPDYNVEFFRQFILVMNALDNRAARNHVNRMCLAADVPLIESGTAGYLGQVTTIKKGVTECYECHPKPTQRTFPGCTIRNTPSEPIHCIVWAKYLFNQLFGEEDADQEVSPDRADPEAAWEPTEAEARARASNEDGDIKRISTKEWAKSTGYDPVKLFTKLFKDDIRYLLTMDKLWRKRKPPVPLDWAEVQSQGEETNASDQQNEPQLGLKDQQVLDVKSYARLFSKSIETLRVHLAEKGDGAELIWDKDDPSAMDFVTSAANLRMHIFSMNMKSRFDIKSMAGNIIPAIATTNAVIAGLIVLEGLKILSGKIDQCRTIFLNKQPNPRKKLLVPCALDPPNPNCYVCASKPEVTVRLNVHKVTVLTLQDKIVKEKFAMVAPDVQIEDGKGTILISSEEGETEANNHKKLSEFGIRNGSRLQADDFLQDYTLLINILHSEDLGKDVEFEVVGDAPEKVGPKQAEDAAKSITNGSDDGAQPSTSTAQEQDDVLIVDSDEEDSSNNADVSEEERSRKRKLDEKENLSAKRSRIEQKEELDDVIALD

[12] = molecular target: Cytochrome P450 2C9 (Homo sapiens, UniProt P11712)
Sequence of Cytochrome P450 2C9 (P11712 whole entry): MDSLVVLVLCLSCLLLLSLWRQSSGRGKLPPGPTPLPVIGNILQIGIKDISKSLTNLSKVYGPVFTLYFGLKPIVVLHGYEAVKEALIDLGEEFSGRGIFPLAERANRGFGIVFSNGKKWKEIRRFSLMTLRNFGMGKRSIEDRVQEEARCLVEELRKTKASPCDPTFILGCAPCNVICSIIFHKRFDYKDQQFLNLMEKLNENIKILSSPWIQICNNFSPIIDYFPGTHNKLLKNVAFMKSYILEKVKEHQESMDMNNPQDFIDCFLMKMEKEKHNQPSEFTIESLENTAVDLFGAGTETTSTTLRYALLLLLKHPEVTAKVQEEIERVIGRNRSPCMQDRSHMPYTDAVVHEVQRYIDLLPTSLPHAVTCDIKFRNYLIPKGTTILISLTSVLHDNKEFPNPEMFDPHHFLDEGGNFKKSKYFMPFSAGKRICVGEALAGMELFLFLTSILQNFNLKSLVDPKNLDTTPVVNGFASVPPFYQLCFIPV

[13] = molecular target: T1, Short transient receptor potential channel 4; assay: mouse TRPC4 channel activators, dose response, cell-based, HEK293 TRPC4/mu-opioid, Fluo-4 calcium (AID 434937); assay type: functional
[14] = molecular target: DNA damage-inducible transcript 3 protein (Mus musculus, UniProt P35639); assay type: functional, Cricetulus griseus
Sequence of DNA damage-inducible transcript 3 protein (P35639 whole entry): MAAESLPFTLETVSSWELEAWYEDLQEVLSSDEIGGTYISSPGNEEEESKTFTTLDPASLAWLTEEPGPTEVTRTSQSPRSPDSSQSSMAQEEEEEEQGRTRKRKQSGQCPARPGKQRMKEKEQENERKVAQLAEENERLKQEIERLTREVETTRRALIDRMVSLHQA

[15] = molecular target: DNA dC->dU-editing enzyme APOBEC-3A (Homo sapiens, UniProt P31941); assay: Dose Response confirmation of small molecule APOBEC3A DNA Deaminase Inhibitors via a fluorescence-based single-stranded DNA deaminase assay. [Related pubchem assays (depositor defined):AID493011, AID493024]; assay type: functional
Sequence of DNA dC->dU-editing enzyme APOBEC-3A (P31941 whole entry): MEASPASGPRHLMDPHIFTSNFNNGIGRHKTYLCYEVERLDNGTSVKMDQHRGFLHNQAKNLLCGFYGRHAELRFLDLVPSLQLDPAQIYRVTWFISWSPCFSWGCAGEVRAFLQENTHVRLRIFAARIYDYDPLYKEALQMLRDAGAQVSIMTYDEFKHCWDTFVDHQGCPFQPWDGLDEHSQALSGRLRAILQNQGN

[16] = molecular target: DNA dC->dU-editing enzyme APOBEC-3G (Homo sapiens, UniProt Q9HC16); assay type: functional;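 also: Dose-response counterscreen measuring inhibition of APOBEC3G DNA deaminase activity, run while confirming APOBEC3A inhibitors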
Sequence of DNA dC->dU-editing enzyme APOBEC-3G (Q9HC16 whole entry): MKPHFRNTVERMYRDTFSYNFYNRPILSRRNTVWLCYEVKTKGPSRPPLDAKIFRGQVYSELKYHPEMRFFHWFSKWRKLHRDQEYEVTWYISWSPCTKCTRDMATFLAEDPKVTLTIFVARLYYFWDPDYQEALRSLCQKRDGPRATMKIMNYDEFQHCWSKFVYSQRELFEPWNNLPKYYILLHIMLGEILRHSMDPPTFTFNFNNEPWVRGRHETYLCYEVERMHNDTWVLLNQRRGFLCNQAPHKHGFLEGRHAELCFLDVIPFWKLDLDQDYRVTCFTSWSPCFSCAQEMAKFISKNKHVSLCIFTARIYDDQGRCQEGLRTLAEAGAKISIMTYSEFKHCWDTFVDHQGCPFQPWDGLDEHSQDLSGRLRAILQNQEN

[17] = system: HEK293; assay: cells; assay type: functional, cell-based; details: Homo sapiens
[18] = system: HEK293; assay: cells; assay type: functional, cell-based; details: Homo sapiens; remark: listed apart in the source
[19] = system: HEK293; assay: NOD2 signaling inhibitors in MDP-stimulated cells, cell-based, uHTS, luminescence (AID 2001); assay type: functional; details: Homo sapiens
[20] = system: HEK293; assay: NOD1 signaling inhibitors, primary screen, cell-based, luminescence, uHTS (AID 1578); assay type: functional; details: Homo sapiens
[21] = molecular target: T4, Cytochrome P450 1A2 (Homo sapiens, UniProt P05177);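 also: PubChem cytochrome P450 panel assay, CYP1A2 panel member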
T4 sequence (P05177 whole entry): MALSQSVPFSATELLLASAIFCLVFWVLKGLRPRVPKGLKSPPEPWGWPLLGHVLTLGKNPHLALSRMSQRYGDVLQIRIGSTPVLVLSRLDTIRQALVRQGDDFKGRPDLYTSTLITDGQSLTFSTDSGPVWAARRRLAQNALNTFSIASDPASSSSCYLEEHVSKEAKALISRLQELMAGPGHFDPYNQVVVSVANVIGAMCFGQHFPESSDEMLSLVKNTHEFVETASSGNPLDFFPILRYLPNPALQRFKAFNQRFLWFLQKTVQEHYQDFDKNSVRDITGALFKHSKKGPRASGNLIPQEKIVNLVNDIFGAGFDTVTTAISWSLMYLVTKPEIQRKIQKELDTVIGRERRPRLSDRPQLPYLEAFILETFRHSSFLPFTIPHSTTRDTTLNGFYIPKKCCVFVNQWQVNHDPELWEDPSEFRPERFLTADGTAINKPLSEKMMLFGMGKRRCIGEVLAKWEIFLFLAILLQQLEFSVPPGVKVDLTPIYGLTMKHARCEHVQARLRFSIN

[22] = molecular target: Trypsin (Sus scrofa, UniProt P00761); assay: porcine trypsin inhibitors, dose response, selectivity assay for Rce1 protease inhibitor project, biochemical, quenched peptide fluorescence, cherry-pick (AID 488789)
Sequence of Trypsin (P00761 whole entry): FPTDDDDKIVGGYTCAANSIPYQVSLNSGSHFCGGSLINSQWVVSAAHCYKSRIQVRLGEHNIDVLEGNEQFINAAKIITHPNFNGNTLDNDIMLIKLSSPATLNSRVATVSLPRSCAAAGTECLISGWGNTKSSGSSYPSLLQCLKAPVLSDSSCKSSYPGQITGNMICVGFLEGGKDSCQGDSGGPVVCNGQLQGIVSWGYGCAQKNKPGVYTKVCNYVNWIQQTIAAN

[23] = molecular target: T5, CAAX prenyl protease 2 (Saccharomyces cerevisiae S288c, UniProt Q03530); assay type: biochemical
T5 sequence (Q03530 whole entry): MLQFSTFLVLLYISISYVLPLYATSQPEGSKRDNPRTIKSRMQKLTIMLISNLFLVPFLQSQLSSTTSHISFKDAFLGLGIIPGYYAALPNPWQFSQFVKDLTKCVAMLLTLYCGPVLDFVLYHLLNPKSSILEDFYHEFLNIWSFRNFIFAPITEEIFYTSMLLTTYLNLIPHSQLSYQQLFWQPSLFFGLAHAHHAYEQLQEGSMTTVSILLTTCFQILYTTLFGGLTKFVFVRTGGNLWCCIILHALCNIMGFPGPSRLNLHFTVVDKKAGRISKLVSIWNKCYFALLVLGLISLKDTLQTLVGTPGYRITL

[24] = molecular target: T6, Carboxy-terminal domain RNA polymerase II polypeptide A small phosphatase 1 (Homo sapiens, UniProt Q9GZU7); assay: inhibitors of CTDSP1, concentration-response testing, biochemical assay, absorbance-based, actives from ultra-high-throughput screening (AID 540297); assay type: functional
T6 sequence (Q9GZU7 whole entry): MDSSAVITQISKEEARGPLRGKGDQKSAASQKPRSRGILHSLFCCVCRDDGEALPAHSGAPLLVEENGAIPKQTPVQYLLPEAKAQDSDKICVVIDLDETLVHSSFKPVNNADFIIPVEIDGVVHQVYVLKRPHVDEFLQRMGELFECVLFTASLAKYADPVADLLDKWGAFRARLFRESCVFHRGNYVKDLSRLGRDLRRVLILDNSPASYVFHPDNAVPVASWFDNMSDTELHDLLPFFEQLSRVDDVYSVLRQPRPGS

[25] = inhibitors of intracellular T. cruzi replication, confirmation, NIH3T3 host cells, beta-gal luminescence (AID 2044); assay type: functional, cell-based;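 also: intracellular parasites grown in NIH/3T3 mouse fibroblasts as host cells; luminescent beta-galactosidase reporter signal from transgenic T. cruzi replicating inside host cells; inhibitors lower the luminescence signal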
[26] = cytotoxicity toward NIH3T3 fibroblasts, dose response, counter-screen, cell-based, ATP luminescence, mouse fibroblasts (AID 2010); assay type: functional;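 also: cells exposed to compound for about 90 hours before reading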

SMILES: Cc1ccc(S(=O)(=O)N2CCC(N3CCN(C)CC3)CC2)cc1Cl
- EC50 [1]: 0.94 µM (active)

SMILES: Nc1c(NC2CCCCC2)c2ccccc2oc1=O
- IC50 [2]: > 100 µM (inactive)
- IC50 [3]: > 100 µM (not active)

SMILES: Cc1ccc(/C=C2\SC(=S)N(CCC(=O)NNS(=O)(=O)c3ccc(C)cc3)C2=O)cc1
- IC50 [2]: > 100 µM (inactive)
- IC50 [3]: > 100 µM (not active)

SMILES: CCOc1ccc(N2C(=O)/C(=C\NNc3nc(C)cc(C)n3)c3ccccc3C2=O)cc1
- EC50 [4]: > 38 µM (not active)
- CC50 [5]: 10.3 µM (active)
- AC50 [6]: 2.24 µM (active)
- IC50 [7]: 11.2 µM (active)
- EC50 [8]: 47.9 µM (active)
- AC50 [9]: 3.48 µM (active)

SMILES: O=C(NNC(=O)c1sc2ccccc2c1Cl)Nc1ccc(Cl)cc1
- AC50 [10]: 3.55 µM (inconclusive)
- IC50 [11]: 25.8 µM (active)
- AC50 [12]: inconclusive

SMILES: CCN(CC)c1ccc(S(=O)(=O)N2CCOCC2)cc1NC(=O)CSc1cccc[n+]1[O-]
- IC50 [2]: > 100 µM (inactive)
- IC50 [3]: > 100 µM (not active)

SMILES: Nc1cc(N2CCNCC2)ccc1[N+](=O)[O-]
- EC50 [1]: 0.19 µM (active)
- EC50 [13]: 1.19 µM (active)

SMILES: Nc1c(C(=O)NCc2ccco2)c2nc3ccccc3nc2n1CCc1ccc(F)cc1
- IC50 [11]: 34.7 µM (active)

SMILES: O=C(NNC(=O)c1cccc2ccccc12)c1ccc(-c2ccccc2)cc1
- Absolute IC50 (CHOP) [14]: 10 µM

SMILES: C[C@@H]1CC2(CCCC[N+]2(C)C)C[C@H]1C
- IC50 [15]: 1.61 µM (active)
- IC50 [16]: 3.7 µM (active)

SMILES: Cc1cccc(NC(=O)c2cccc(NS(=O)(=O)c3ccc(Cl)cc3)c2)c1
- IC50 [17]: > 20 µM (inactive)
- IC50 [18]: > 20 µM (inactive)
- IC50 [19]: 12.6 µM (inactive)
- EC50 [20]: 9.39 µM (active)

SMILES: C[C@@]12CC[C@@H]3c4ccc(O)cc4CC[C@H]3[C@H]1CC[C@H]2O
- AC50 [21]: 5.01 µM (inconclusive)
- AC50 [12]: inconclusive

SMILES: CCc1cc(=O)oc2c3c(cc(OCC(=O)NCCCCCC(=O)O)c12)OC(C)(C)CC3
- AC50 [22]: 4.32 µM (active)
- IC50 [11]: > 100 µM (inactive)
- AC50 [23]: 14 µM (active)

SMILES: CCOc1ccc(OCCCC(=O)N2CCN(S(=O)(=O)c3ccc(Cl)cc3)CC2)cc1
- IC50 [15]: 2.04 µM (active)
- IC50 [24]: 6.6 µM (active)
- IC50 [16]: 2.23 µM (active)

SMILES: O=[N+]([O-])c1ccc(/C=N/Nc2nc(N3CCCCC3)nc(N3CCCCC3)n2)o1
- EC50 [1]: 5.96 µM (active)
- EC50 [25]: 0.225 µM (active)
- EC50 [26]: > 60 µM (inconclusive)

SMILES: COc1ccccc1-c1nnc(NC(=O)c2ccc(S(=O)(=O)N(C)Cc3ccccc3)cc2)o1
- Absolute IC50 (CHOP) [14]: 10 µM
